Experimental data: PMC2898382 (The Journal of Biological Chemistry, 2010)

Target: T1, purified bovine catalase (Bos taurus, UniProt P00432)
T1 sequence (P00432 2-527): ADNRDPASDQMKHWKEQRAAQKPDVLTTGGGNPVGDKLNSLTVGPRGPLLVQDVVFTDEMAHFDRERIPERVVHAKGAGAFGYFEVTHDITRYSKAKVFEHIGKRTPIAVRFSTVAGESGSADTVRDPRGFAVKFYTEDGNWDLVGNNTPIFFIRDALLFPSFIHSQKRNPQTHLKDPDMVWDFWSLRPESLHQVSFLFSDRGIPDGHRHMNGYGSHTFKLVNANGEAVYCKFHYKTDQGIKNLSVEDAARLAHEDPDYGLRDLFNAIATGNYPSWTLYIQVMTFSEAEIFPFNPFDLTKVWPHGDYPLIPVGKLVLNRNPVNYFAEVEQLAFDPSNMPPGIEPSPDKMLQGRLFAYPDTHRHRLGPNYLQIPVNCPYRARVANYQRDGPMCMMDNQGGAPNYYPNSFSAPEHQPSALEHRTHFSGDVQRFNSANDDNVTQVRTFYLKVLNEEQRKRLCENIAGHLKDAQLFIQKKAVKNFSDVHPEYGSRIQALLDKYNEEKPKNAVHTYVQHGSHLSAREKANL
Assay: H2O2 breakdown at […] nm, global fit to competitive inhibition model
Assay type: biochemical

Ki: 230 µM
Structure (SMILES): NC(=O)NO [Hydroxyurea]
